Experimental data as given in patent publication US11793849B2, “Method of Chinese herbal medicine extract used for treating multiple diseases caused by drug resistant bacteria infection” (priority 2016, dated 2023).
Where two headings read alike, the source gives them in different places.

Test system: MDRAB
Test: Checkerboard assay (combined-use MIC, FIC)
Format: cell-based, Acinetobacter baumannii
Settings: for FIC, all strains / MIC50 of the antibiotic after combined use / MIC90 of the antibiotic after combined use / reduction of the antibiotic's MIC50 vs single use / reduction of the antibiotic's MIC90 vs single use / share of strains with FIC ≤ 0.5: 20 MDRABs; for MIC: Acinetobacter baumannii, read-out: single-use MIC
Protocol: Test methods of the sensibilization effects of the test product to similar antibiotics: it is operated by referring to a checkerboard assay recommended by NCCLS.
The checkerboard assay is performed in a 96-pore sterile culture plate.
Calculation of a Fractional Inhibitory Concentration (FIC): FIC=S20b combined-use MIC/S20b single-use MIC+antibiotic combined-use MIC/antibiotic single-use MIC. By calculating the FIC, the combined antibacterial interaction between the EA and the antibiotic is evaluated, with synergistic effect for FIC≤0.5, additive effect for 0.5<FIC≤1, indifferent effect for 1<FIC≤2 and antagonistic effect for FIC>2. According to a sterile growth pore, the optimum concentration ratio between the EA and the antibiotic is founded out. At last, the effect of the EA to strengthen the efficacy of the antibiotic is evaluated.

[1] = antibiotic with 60% ethanol extract
[2] = antibiotic with 95% ethanol extract
[3] = antibiotic with EA (10% ethanol extract)
[4] = antibiotic with EA (water extract)

C[C@@H](O)[C@H]1C(=O)N2C(C(=O)O)=C(SCCN=CN)C[C@H]12 [IMP, imipenem]
FIC, all strains [1]: ≤ 1
MIC50 of the antibiotic after combined use [1]: 8 µg/mL
MIC90 of the antibiotic after combined use [1]: 16 µg/mL
reduction of the antibiotic's MIC50 vs single use [1]: 75%
reduction of the antibiotic's MIC90 vs single use [1]: 50%
share of strains with FIC ≤ 0.5 [1]: 70%
FIC, all strains [2]: ≤ 1
MIC50 of the antibiotic after combined use [2]: 8 µg/mL
MIC90 of the antibiotic after combined use [2]: 16 µg/mL
reduction of the antibiotic's MIC50 vs single use [2]: 75%
reduction of the antibiotic's MIC90 vs single use [2]: 50%
share of strains with FIC ≤ 0.5 [2]: 55%
FIC, all strains [3]: ≤ 1
MIC50 of the antibiotic after combined use [3]: 8 µg/mL
MIC90 of the antibiotic after combined use [3]: 16 µg/mL
reduction of the antibiotic's MIC50 vs single use [3]: 75%
reduction of the antibiotic's MIC90 vs single use [3]: 50%
share of strains with FIC ≤ 0.5 [3]: 45%
FIC, all strains [4]: ≤ 1
MIC50 of the antibiotic after combined use [4]: 8 µg/mL
MIC90 of the antibiotic after combined use [4]: 16 µg/mL
reduction of the antibiotic's MIC50 vs single use [4]: 75%
reduction of the antibiotic's MIC90 vs single use [4]: 50%
share of strains with FIC ≤ 0.5 [4]: 35%
MIC (strain A1, EA=60% ethanol extract): 1 µg/mL
MIC (strain A1, EA=95% ethanol extract): 1 µg/mL
MIC (strain A2, EA=60% ethanol extract): 32 µg/mL
MIC (strain A2, EA=95% ethanol extract): 32 µg/mL
MIC (strain A3, EA=60% ethanol extract): 32 µg/mL
MIC (strain A3, EA=95% ethanol extract): 32 µg/mL
MIC (strain A4, EA=60% ethanol extract): 8 µg/mL
MIC (strain A4, EA=95% ethanol extract): 8 µg/mL
MIC (strain A5 (printed AS in tables A43, A45), EA=95% ethanol extract): 32 µg/mL
MIC (strain A5, EA=60% ethanol extract): 32 µg/mL
MIC (strain A6, EA=60% ethanol extract): 32 µg/mL
MIC (strain A6, EA=95% ethanol extract): 32 µg/mL
MIC (strain A7, EA=60% ethanol extract): 32 µg/mL
MIC (strain A7, EA=95% ethanol extract): 32 µg/mL
MIC (strain A8, EA=60% ethanol extract): 32 µg/mL
MIC (strain A8, EA=95% ethanol extract): 32 µg/mL
MIC (strain A9, EA=60% ethanol extract): 32 µg/mL
MIC (strain A9, EA=95% ethanol extract): 32 µg/mL
MIC (strain A10, EA=60% ethanol extract): 16 µg/mL
MIC (strain A10, EA=95% ethanol extract): 16 µg/mL
MIC (strain A11, EA=60% ethanol extract): 32 µg/mL
MIC (strain A11, EA=95% ethanol extract): 32 µg/mL
MIC (strain A12, EA=60% ethanol extract): 32 µg/mL
MIC (strain A12, EA=95% ethanol extract): 32 µg/mL
MIC (strain A13, EA=60% ethanol extract): 32 µg/mL
MIC (strain A13, EA=95% ethanol extract): 32 µg/mL
MIC (strain A14, EA=60% ethanol extract): 32 µg/mL
MIC (strain A14, EA=95% ethanol extract): 32 µg/mL
MIC (strain A15, EA=60% ethanol extract): 32 µg/mL
MIC (strain A15, EA=95% ethanol extract): 32 µg/mL
MIC (strain A16, EA=60% ethanol extract): 32 µg/mL
MIC (strain A16, EA=95% ethanol extract): 32 µg/mL
MIC (strain A17, EA=60% ethanol extract): 16 µg/mL
MIC (strain A17, EA=95% ethanol extract): 16 µg/mL
MIC (strain A18, EA=60% ethanol extract): 32 µg/mL
MIC (strain A18, EA=95% ethanol extract): 32 µg/mL
MIC (strain A19, EA=60% ethanol extract): 32 µg/mL
MIC (strain A19, EA=95% ethanol extract): 32 µg/mL
MIC (strain A20, EA=60% ethanol extract): 32 µg/mL
MIC (strain A20, EA=95% ethanol extract): 32 µg/mL
combined-use MIC (strain A1, EA (10% ethanol extract) with IMP): 0.5 µg/mL
combined-use MIC (strain A1, EA (60% ethanol extract) + IMP combined): 0.5 µg/mL
combined-use MIC (strain A1, EA (95% ethanol extract) + IMP combined): 0.5 µg/mL
combined-use MIC (strain A1, EA (water extract) with IMP): 0.5 µg/mL
combined-use MIC (strain A2, EA (10% ethanol extract) with IMP): 8 µg/mL
combined-use MIC (strain A2, EA (60% ethanol extract) + IMP combined): 8 µg/mL
combined-use MIC (strain A2, EA (95% ethanol extract) + IMP combined): 8 µg/mL
combined-use MIC (strain A2, EA (water extract) with IMP): 16 µg/mL
